Molecular target: T1, sproBACE1 (soluble form of human BACE1) (Homo sapiens, UniProt P56817)
T1 construct: sBACE1, corresponding to amino acids 1-454; made in house; host or cells: Sf9 insect cells (baculovirus), secreted into the medium
Experiment: Peptide Hydrolysis Assay (HTRF, EuK-biotin labeled APPsw substrate)
Format: biochemical
Conditions: 7 nM sproBACE1, 25 nM EuK-biotin APPsw substrate, pH 5.0, 3 hr at 30° C.
Text: A predicted soluble form of human BACE1 (sBACE1, corresponding to amino acids 1-454) was generated from the full length BACE1 cDNA (full length human BACE1 cDNA in pcDNA4/mycHisA construct; University of Toronto) by PCR using the advantage-GC cDNA PCR kit (Clontech, Palo Alto, Calif.). A HindIII/PmeI fragment from pcDNA4-sBACE1myc/His was blunt ended using Klenow and subcloned into the StuI site of pFASTBACI(A) (Invitrogen). A sBACE1mycHis recombinant bacmid was generated by transposition in DH10Bac cells(GIBCO/BRL). Subsequently, the sBACE1 mycHis bacmid construct was transfected into sf9 cells using CellFectin (Invitrogen, San Diego, Calif.) in order to generate recombinant baculovirus. […]
Proteins, were eluted from the Q-sepharose column with Buffer B (20 mM HEPES, pH 8.0, 500 mM NaCl). […] Peak protein fractions as determined by the Bradford Assay (Biorad, CA) were concentrated using a Centricon 30 concentrator (Millipore). sBACE1 purity was estimated to be ˜90% as assessed by SDS-PAGE and Commassie Blue staining. […]
IC50 determinations for inhibitors, (I), were determined by measuring the percent change of the relative fluorescence at 665 nm divided by the relative fluorescence at 620 nm, (665/620 ratio), in the presence of varying concentrations of I and a fixed concentration of enzyme and substrate. […]

T1 sequence (P56817 22-454): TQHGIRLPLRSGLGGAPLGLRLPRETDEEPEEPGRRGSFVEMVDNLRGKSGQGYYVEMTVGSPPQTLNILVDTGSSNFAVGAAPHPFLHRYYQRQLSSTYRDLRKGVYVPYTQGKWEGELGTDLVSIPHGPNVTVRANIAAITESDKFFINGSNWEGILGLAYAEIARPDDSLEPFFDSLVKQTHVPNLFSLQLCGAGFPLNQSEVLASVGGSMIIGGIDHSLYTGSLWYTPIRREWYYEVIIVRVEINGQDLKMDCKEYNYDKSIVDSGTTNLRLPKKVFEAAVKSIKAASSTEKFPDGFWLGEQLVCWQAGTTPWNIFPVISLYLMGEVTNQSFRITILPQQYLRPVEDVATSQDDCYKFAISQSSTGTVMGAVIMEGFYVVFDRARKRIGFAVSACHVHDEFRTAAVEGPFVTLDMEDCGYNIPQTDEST

IC50: 0.186 µM
Structure (SMILES): CC(=O)N[C@@H](Cc1cc(F)cc(OCc2ccncc2)c1)[C@H](O)[C@@H]1NCCN(Cc2ccccc2)C1=O

From patent US8367712B2, “Substituted amide beta secretase inhibitors” (Merck, Sharp & Dohme, Corp., priority 2004, dated 2013)
